# Legend:
# [1] = tested on: Plasmodium falciparum; test: Antimalarial activity against chloroquine-resistant Plasmodium falciparum FcB1; format: functional, organism-based
# [2] = tested on: MRC5; test: Relative inhibitory activity to cytotoxicity as selectivity index (CC50/IC50); format: functional
# [3] = tested on: MRC5; test: Cytotoxicity against human diploid embryonic lung cell line (MRC5 cells) using the colorimetric MTT assay; format: functional
# [4] = molecular target: T1, Histidine-rich protein PFHRP-II (Plasmodium falciparum) (UniProt P05227); test: Inhibition of 1-monooleoyl glycerol (MOG) induced beta-hematin formation at 200 uM; format: functional
# T1 sequence (whole entry): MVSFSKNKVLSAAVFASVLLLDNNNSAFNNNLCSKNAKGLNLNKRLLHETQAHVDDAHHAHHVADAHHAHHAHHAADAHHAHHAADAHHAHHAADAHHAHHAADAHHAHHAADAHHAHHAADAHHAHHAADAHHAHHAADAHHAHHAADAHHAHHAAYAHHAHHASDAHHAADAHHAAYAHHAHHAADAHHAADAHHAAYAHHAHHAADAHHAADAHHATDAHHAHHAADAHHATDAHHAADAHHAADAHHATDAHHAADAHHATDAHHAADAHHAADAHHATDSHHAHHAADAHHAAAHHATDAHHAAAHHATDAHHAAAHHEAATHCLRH
# [5] = molecular target: T1, Histidine-rich protein PFHRP-II (Plasmodium falciparum); test: Vacuolar accumulation ratio (VAR) on beta-hematin inhibitory activity; format: functional
Compound,IC50 [1] [µM],Selectivity index [2],CC50 [3] [µM],inhibition [4] [%],VAR [5]
CC(C)CN(CCCN1CCN(CCCNC(=O)c2ccc(Cl)cc2)CC1)CC(C)C,5.27,18,93,0,3400
CC(C)CN(CCCN1CCN(CCCNc2[nH]cnc3ncnc2-3)CC1)CC(C)C,1.23,67,82,53,6200
COc1ccc(CNCCCN2CCN(CCCN(CC(C)C)CC(C)C)CC2)cc1,0.111,–,12,–,476000
CC(C)CN(CCCN1CCN(CCCNCc2ccc(Cl)cc2)CC1)CC(C)C,0.0406,–,13,–,475000
CCN(CC)CCCC(C)Nc1ccnc2cc(Cl)ccc12 (stereo unspecified) [CHLOROQUINE],–,–,50,–,5310
CC(C)CN(CCCN1CCN(CCCNCc2ccc3ccccc3c2)CC1)CC(C)C,0.121,54,6.5,98,475000
CC(C)CN(CCCN1CCN(CCCNc2nc3ccccc3[nH]2)CC1)CC(C)C,0.0873,183,16,–,388000
CC(C)CN(CCCN1CCN(CCCNCc2ccccc2)CC1)CC(C)C,0.454,46,21,–,476000
CC(C)CN(CCCN1CCN(CCCNc2cnccn2)CC1)CC(C)C,0.531,151,80,–,3600
CC(C)CN(CCCN1CCN(CCCNc2ccc([N+](=O)[O-])cn2)CC1)CC(C)C,0.758,65,49,53,3800
COc1ccc(C(=O)NCCCN2CCN(CCCN(CC(C)C)CC(C)C)CC2)cc1,4.43,–,57.7,–,3100
CC(C)CN(CCCN1CCN(CCCNC(=O)c2ccncc2)CC1)CC(C)C,1.55,65,> 100,0,3200
CC(C)CN(CCCN1CCN(CCCNc2ccnc3cc(Cl)ccc23)CC1)CC(C)C,–,–,–,–,597000
CC(C)CN(CCCN1CCN(CCCNC(=O)c2ccc3ccccc3c2)CC1)CC(C)C,0.672,>65,44,54,3300
CC(C)CN(CCCN1CCN(CCCNc2nc3ccccc3o2)CC1)CC(C)C,1.33,>75,> 100,–,298000
CC(C)CN(CCCN1CCN(CCCNCc2ccncc2)CC1)CC(C)C,0.842,36,30,–,504000
CC(C)CN(CCCN1CCN(CCCNc2ccnc3ccccc23)CC1)CC(C)C,0.0189,1587,30,–,882000

# — ChEMBL document CHEMBL1146633, “Synthesis and antimalarial evaluation of new 1,4-bis(3-aminopropyl)piperazine derivatives” (Bioorg Med Chem Lett, 2003)
